Data reported in US20120122727A1, “IN VITRO METHOD FOR PREDICTING WHETHER A COMPOUND IS GENOTOXIC IN VIVO” (priority 2009, published 2012).
Like-named read-outs stand apart in the source and are kept apart here.

Tested on: primary mouse hepatocytes
Test: Gene expression in primary mouse hepatocytes, GTX vs non-GTX (four-gene classifier, 24 h)
Description: Hepatocyte cells were incubated and exposed to a compound for 24 h before being harvested for RNA isolation.
The results of the gene expression analysis may then be fed into a statistical software package such as R, Splus, or Microsoft Excel. […] If none or only one of these criteria were met, no point was scored.
For each of the four genes mentioned in the table (1700007K13RIK, GAS2L3, SPC25, DDIT4L), a statistical comparison was made between the normalized expression data for these genes. […] If none or only one of these criteria were met, no point was scored.
For each compound, the sum of the scores for four genes is taken. If this score is 0, a compound can be believed not to be genotoxic. If this score is 1, 2, 3 or 4, a compound is genotoxic.
If none or only one of these criteria were met, no point was scored.

[1] = 24 h exposure, average of four replicates
[2] = log 2 ratio, 24 h exposure, concentration per Table 4
[3] = sum of scores for four genes, 0 = not genotoxic, 1, 2, 3 or 4 = genotoxic

| Structure (SMILES) | score 1700007K13RIK [1] | score DDIT4L [1] | score GAS2L3 [1] | score SPC25 [1] | Ratios of gene expression treated/untreated 1700007K13RIK [2] | Ratios of gene expression treated/untreated DDIT4L [2] | Ratios of gene expression treated/untreated GAS2L3 [2] | Ratios of gene expression treated/untreated SPC25 [2] | Total score [3] | Ratios of gene expression treated/untreated 1700007K13RIK | Ratios of gene expression treated/untreated DDIT4L | Ratios of gene expression treated/untreated GAS2L3 | Ratios of gene expression treated/untreated SPC25 | Total score | score 1700007K13RIK | score DDIT4L | score GAS2L3 | score SPC25 |
| --- | --- | --- | --- | --- | --- | --- | --- | --- | --- | --- | --- | --- | --- | --- | --- | --- | --- | --- |
| CC(C)(c1ccc(O)cc1)c1ccc(O)cc1 [BPA, Bisphenol A] | 0 | 0 | 0 | 0 | −0.0382 | 0.0293 | −0.06 | −0.0457 | 0 |  |  |  |  |  |  |  |  |  |
| ClC(Cl)(Cl)Cl [CCI4, Carbon tetrachloride] | 0 | 0 | 0 | 0 | 0.3906 | 0.4894 | −0.3188 | 0.3544 | 0 |  |  |  |  |  |  |  |  |  |
| O=C(O)Cc1ccccc1Nc1c(Cl)cccc1Cl [DF, Diclofenac] | 0 | 0 | 0 | 0 |  |  |  |  | 0 | 0.09622 | 0.1268 | −0.2839 | 0.4079 |  |  |  |  |  |
| CCC[CH2][Sn]([CH2]CCC)([CH2]CCC)[O][Sn]([CH2]CCC)([CH2]CCC)[CH2]CCC [TBTO, Bis(tri-n-butyltin)oxide] | 0 | 0 | 0 | 0 | 0.09131 | 0.319 | −0.0161 | 0.2186 | 0 |  |  |  |  |  |  |  |  |  |
| Clc1cc2c(cc1Cl)Oc1cc(Cl)c(Cl)cc1O2 [TCDD, 2,3,7,8-Tetrachlorodibenzodioxin] | 0 | 0 | 0 | 0 | 0.0752 | 0.2646 | 0.22 | 0.01802 | 0 |  |  |  |  |  |  |  |  |  |
| CCCCCCCCCCCCCC(=O)O[C@@H]1[C@@H](C)[C@@]2(O)[C@@H](C=C(CO)C[C@]3(O)C(=O)C(C)=C[C@@H]23)[C@@H]2C(C)(C)[C@]12OC(C)=O [TPA, Tetradecanoylphorbol Acetate] | 0 | 0 | 0 | 0 | −0.0617 | 0.05594 | 0.01747 | 0.03809 | 0 |  |  |  |  |  |  |  |  |  |
| Cc1cccc(Nc2cc(Cl)nc(SCC(=O)O)n2)c1C [Wyeth, Wy-14,643] | 0 | 0 | 0 | 0 | −0.3527 | −0.1013 | −0.7113 | −0.0756 | 0 |  |  |  |  |  |  |  |  |  |
| OC[C@@H](O)[C@@H](O)[C@H](O)[C@H](O)CO [dMan, D-Mannitol] | 0 | 0 | 0 | 0 | 0.02382 | 0.03421 | −0.2175 | −0.0363 | 0 |  |  |  |  |  |  |  |  |  |
| COc1ccc(C)cc1N [pCres, Para-Cresidine] |  |  |  |  |  |  |  |  |  | 0.2086 | 1.066 | 1.562 | 1.331 | 3 | 0 | 1 | 1 | 1 |
